Assay [1] has as its system Cricetinae gen. sp. Nature of the assay: Tested for inhibition of liver cholesterol esters absorption in cholesterol-fed hamsters at a oral dose of 10 mg/Kg/day. It counts as functional, Cricetulus griseus.
For assay [2], the system named is Cricetinae gen. sp. Nature of the assay: Tested for inhibition of serum cholesterol absorption in cholesterol-fed hamsters at a oral dose of 10 mg/Kg/day. It is filed as functional, hamster.
The subject of assay [3] is Cricetinae gen. sp. Kind of assay: Tested for inhibition of liver cholesterol esters absorption in cholesterol-fed hamsters at a oral dose of 8 mg/Kg/day. It counts as functional, Cricetulus griseus.
Assay [4] has as its system Cricetinae gen. sp. Kind of assay: Tested for inhibition of serum cholesterol absorption in cholesterol-fed hamsters at a oral dose of 8 mg/Kg/day. It is filed as functional, Cricetulus griseus.

On to `COc1ccc(N2C(=O)[C@H](CCCc3ccccc3)[C@H]2c2ccc(O)cc2)cc1`, for which the Reduction was -70% in assay [1] and -25% in assay [2].

On to `COC(=O)[C@H]1O[C@@H](Oc2ccc([C@@H]3[C@@H](CCCc4ccccc4)C(=O)N3c3ccc(OC)cc3)cc2)[C@H](O)[C@@H](O)[C@@H]1O`, for which the results for the Reduction in assay [3] and in assay [4] were -62% and -23%, respectively.

In the case of `COc1ccc(N2C(=O)[C@H](CCCc3ccccc3)[C@H]2c2ccc(O[C@@H]3O[C@H](COCc4ccccc4)[C@@H](OCc4ccccc4)[C@H](OCc4ccccc4)[C@H]3OCc3ccccc3)cc2)cc1`, the Reduction in assay [1] is listed as -21%; in assay [2], -9%.

Regarding `COc1ccc(N2C(=O)[C@H](CCCc3ccccc3)[C@H]2c2ccc(O[C@@H]3O[C@H](CO)[C@@H](O)[C@H](O)[C@H]3O)cc2)cc1`, the figures for the Reduction in assay [1] and in assay [2] were -86% and -29%, respectively.

Regarding `COc1ccc(N2C(=O)[C@H](CCCc3ccccc3)[C@H]2c2ccc(O[C@@H]3O[C@H](C(=O)O)[C@@H](O)[C@H](O)[C@H]3O)cc2)cc1`, the figures for the Reduction in assay [1] and in assay [2] were -9% and -10%, respectively.

With `COc1ccc(N2C(=O)[C@H](CCCc3ccccc3)[C@H]2c2ccc(OC[C@H]3O[C@H](OC)[C@H](O)[C@@H](O)[C@@H]3O)cc2)cc1`, the values for the Reduction in assay [1] and in assay [2] were -48% and -10%, respectively.

For the compound `COc1ccc([C@@H]2[C@@H](CCCc3ccccc3)C(=O)N2c2ccc(OC)cc2)cc1` [SCH-48461], the Reduction in assay [1] is listed as -93%; in assay [2], -43%.

The values above are taken from ChEMBL document CHEMBL1130972, “Sugar-substituted 2-azetidinones as cholesterol absorption inhibitors” (1998).
